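Test compounds were applied to cells in 96-well plates for 48 hours at 5 doses. GI50: concentration for 50% inhibition of growth.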 The source made the active and inactive calls. Rule as the data show it: active = GI50 up to about 1.1 µM and inactive = higher.
What was measured:
Assay in all cases: inhibition of tumour cell growth, NCI panel, 48 h
786-0 = test system: 786-0
A498 = test system: A498
A549 = test system: A549
ACHN = test system: ACHN
BT-549 = test system: BT-549
CAKI-1 = test system: CAKI-1
CCRF-CEM = test system: CCRF-CEM
COLO 205 = test system: COLO 205
DU-145 = test system: DU-145
EKVX = test system: EKVX
HCC 2998 = test system: HCC 2998
HCT-116 = test system: HCT-116
HCT-15 = test system: HCT-15
HL-60 = test system: HL-60
HOP-62 = test system: HOP-62
HOP-92 = test system: HOP-92
HT-29 = test system: HT-29
Hs-578T = test system: Hs-578T
IGROV-1 = test system: IGROV-1
K562 = test system: K562
KM12 = test system: KM12
LOX IMVI = test system: LOX IMVI
MCF7 = test system: MCF7
MDA-MB-231 = test system: MDA-MB-231
MDA-MB-435 = test system: MDA-MB-435
MDA-N = test system: MDA-N
MOLT-4 = test system: MOLT-4
Malme-3M = test system: Malme-3M
NCI-H226 = test system: NCI-H226
NCI-H23 = test system: NCI-H23
NCI-H460 = test system: NCI-H460
NCI-H522 = test system: NCI-H522
NCI/ADR-RES = test system: NCI/ADR-RES
OVCAR-3 = test system: OVCAR-3
OVCAR-4 = test system: OVCAR-4
OVCAR-5 = test system: OVCAR-5
OVCAR-8 = test system: OVCAR-8
RPMI-8226 = test system: RPMI-8226
RXF 393 = test system: RXF 393
SF-268 = test system: SF-268
SF-295 = test system: SF-295
SF-539 = test system: SF-539
SK-MEL-28 = test system: SK-MEL-28
SK-MEL-2 = test system: SK-MEL-2
SK-MEL-5 = test system: SK-MEL-5
SK-OV-3 = test system: SK-OV-3
SN12C = test system: SN12C
SNB-19 = test system: SNB-19
SR = test system: SR
SW-620 = test system: SW-620
T47D = test system: T47D
TK-10 = test system: TK-10
U-251 = test system: U-251
UACC-257 = test system: UACC-257
UACC-62 = test system: UACC-62
UO-31 = test system: UO-31
M14 = test system: M14
PC-3 = test system: PC-3
SNB-75 = test system: SNB-75

Structure (SMILES): CCOC(=O)N/N=C(/OCC)c1ccccc1
- GI50 (786-0): > 100 µM (inactive)
- GI50 (A498): > 100 µM (inactive)
- GI50 (A549): > 100 µM (inactive)
- GI50 (ACHN): > 100 µM (inactive)
- GI50 (BT-549): > 100 µM (inactive)
- GI50 (CAKI-1): > 100 µM (inactive)
- GI50 (CCRF-CEM): > 100 µM (inactive)
- GI50 (COLO 205): > 100 µM (inactive)
- GI50 (DU-145): > 100 µM (inactive)
- GI50 (EKVX): > 100 µM (inactive)
- GI50 (HCC 2998): > 100 µM (inactive)
- GI50 (HCT-116): > 100 µM (inactive)
- GI50 (HCT-15): > 100 µM
- GI50 (HL-60): > 100 µM (inactive)
- GI50 (HOP-62): > 100 µM (inactive)
- GI50 (HOP-92): > 100 µM (inactive)
- GI50 (HT-29): > 100 µM (inactive)
- GI50 (Hs-578T): > 100 µM (inactive)
- GI50 (IGROV-1): > 100 µM (inactive)
- GI50 (K562): > 100 µM (inactive)
- GI50 (KM12): > 100 µM (inactive)
- GI50 (LOX IMVI): > 100 µM (inactive)
- GI50 (MCF7): > 100 µM (inactive)
- GI50 (MDA-MB-231): > 100 µM (inactive)
- GI50 (MDA-MB-435): > 100 µM (inactive)
- GI50 (MDA-N): > 100 µM (inactive)
- GI50 (MOLT-4): > 100 µM (inactive)
- GI50 (Malme-3M): > 100 µM (inactive)
- GI50 (NCI-H226): > 100 µM (inactive)
- GI50 (NCI-H23): > 100 µM (inactive)
- GI50 (NCI-H460): > 100 µM (inactive)
- GI50 (NCI-H522): > 100 µM (inactive)
- GI50 (NCI/ADR-RES): > 100 µM (inactive)
- GI50 (OVCAR-3): > 100 µM (inactive)
- GI50 (OVCAR-4): > 100 µM (inactive)
- GI50 (OVCAR-5): > 100 µM (inactive)
- GI50 (OVCAR-8): > 100 µM (inactive)
- GI50 (RPMI-8226): > 100 µM (inactive)
- GI50 (RXF 393): > 100 µM (inactive)
- GI50 (SF-268): > 100 µM (inactive)
- GI50 (SF-295): > 100 µM (inactive)
- GI50 (SF-539): > 100 µM (inactive)
- GI50 (SK-MEL-28): > 100 µM (inactive)
- GI50 (SK-MEL-2): > 100 µM (inactive)
- GI50 (SK-MEL-5): > 100 µM (inactive)
- GI50 (SK-OV-3): > 100 µM (inactive)
- GI50 (SN12C): > 100 µM (inactive)
- GI50 (SNB-19): > 100 µM (inactive)
- GI50 (SR): > 100 µM (inactive)
- GI50 (SW-620): > 100 µM (inactive)
- GI50 (T47D): > 100 µM (inactive)
- GI50 (TK-10): > 100 µM (inactive)
- GI50 (U-251): > 100 µM (inactive)
- GI50 (UACC-257): > 100 µM (inactive)
- GI50 (UACC-62): > 100 µM (inactive)
- GI50 (UO-31): > 100 µM (inactive)

Structure (SMILES): COc1ccc(/C=C2\CCC(CNc3ccc(OC)cc3)C2=O)cc1 (stereo not given)
- GI50 (786-0): 9.51 µM (inactive)
- GI50 (A498): 30.1 µM (inactive)
- GI50 (A549): 36.4 µM (inactive)
- GI50 (ACHN): 18.7 µM (inactive)
- GI50 (BT-549): 13.7 µM (inactive)
- GI50 (CAKI-1): 18.7 µM (inactive)
- GI50 (CCRF-CEM): 3.37 µM (inactive)
- GI50 (COLO 205): 15.7 µM (inactive)
- GI50 (DU-145): 39.1 µM (inactive)
- GI50 (EKVX): 30.3 µM (inactive)
- GI50 (HCC 2998): 21.2 µM (inactive)
- GI50 (HCT-116): 11 µM (inactive)
- GI50 (HCT-15): 6.78 µM
- GI50 (HL-60): 3.09 µM (inactive)
- GI50 (HOP-62): 36.4 µM (inactive)
- GI50 (HOP-92): 18.9 µM (inactive)
- GI50 (HT-29): 14.3 µM (inactive)
- GI50 (Hs-578T): 35.4 µM (inactive)
- GI50 (IGROV-1): 13.9 µM (inactive)
- GI50 (KM12): 10.5 µM (inactive)
- GI50 (LOX IMVI): 12.9 µM (inactive)
- GI50 (M14): 16.1 µM (inactive)
- GI50 (MCF7): 2.61 µM (inactive)
- GI50 (MDA-MB-231): 17.8 µM (inactive)
- GI50 (MDA-MB-435): 20.8 µM (inactive)
- GI50 (MDA-N): 14.1 µM (inactive)
- GI50 (Malme-3M): 22.6 µM (inactive)
- GI50 (NCI-H226): > 100 µM (inactive)
- GI50 (NCI-H23): 14.6 µM (inactive)
- GI50 (NCI-H460): 47.8 µM (inactive)
- GI50 (NCI-H522): 5.58 µM (inactive)
- GI50 (NCI/ADR-RES): 39.4 µM (inactive)
- GI50 (OVCAR-3): 17.4 µM (inactive)
- GI50 (OVCAR-4): 23.4 µM (inactive)
- GI50 (OVCAR-5): 18.5 µM (inactive)
- GI50 (OVCAR-8): 17.7 µM (inactive)
- GI50 (PC-3): 16.8 µM (inactive)
- GI50 (RXF 393): 16.2 µM (inactive)
- GI50 (SF-268): 14.6 µM (inactive)
- GI50 (SF-295): 31 µM (inactive)
- GI50 (SF-539): 20.4 µM (inactive)
- GI50 (SK-MEL-28): 18.9 µM (inactive)
- GI50 (SK-MEL-5): 19 µM (inactive)
- GI50 (SK-OV-3): > 100 µM (inactive)
- GI50 (SN12C): 16 µM (inactive)
- GI50 (SNB-19): > 42.6 µM (inactive)
- GI50 (SNB-75): 31.1 µM (inactive)
- GI50 (SW-620): 3.5 µM (inactive)
- GI50 (T47D): 18.8 µM (inactive)
- GI50 (TK-10): 15.6 µM (inactive)
- GI50 (U-251): 18.7 µM (inactive)
- GI50 (UACC-257): 17.5 µM (inactive)
- GI50 (UACC-62): 17.1 µM (inactive)
- GI50 (UO-31): 17.9 µM (inactive)

Structure (SMILES): O=C(c1cccs1)N(C(=S)OCCOc1ccccc1)c1ccccc1
- GI50 (786-0): 25.2 µM (inactive)
- GI50 (A498): 25.5 µM (inactive)
- GI50 (A549): 28.1 µM (inactive)
- GI50 (ACHN): 27.7 µM (inactive)
- GI50 (BT-549): 20.8 µM (inactive)
- GI50 (CAKI-1): 27.2 µM (inactive)
- GI50 (CCRF-CEM): 27.6 µM (inactive)
- GI50 (COLO 205): 24.8 µM (inactive)
- GI50 (DU-145): 28.6 µM (inactive)
- GI50 (EKVX): 29.5 µM (inactive)
- GI50 (HCC 2998): 24.7 µM (inactive)
- GI50 (HCT-116): 19.4 µM (inactive)
- GI50 (HCT-15): 27.4 µM
- GI50 (HL-60): 27.6 µM (inactive)
- GI50 (HOP-62): 28.2 µM (inactive)
- GI50 (HOP-92): 18.8 µM (inactive)
- GI50 (HT-29): 34 µM (inactive)
- GI50 (Hs-578T): 58.6 µM (inactive)
- GI50 (IGROV-1): 25.4 µM (inactive)
- GI50 (K562): 36.1 µM (inactive)
- GI50 (KM12): 26 µM (inactive)
- GI50 (LOX IMVI): 17.1 µM (inactive)
- GI50 (M14): 17 µM (inactive)
- GI50 (MCF7): 20.2 µM (inactive)
- GI50 (MDA-MB-231): 24.3 µM (inactive)
- GI50 (MDA-MB-435): 17 µM (inactive)
- GI50 (MDA-N): 17.2 µM (inactive)
- GI50 (MOLT-4): 27.4 µM (inactive)
- GI50 (Malme-3M): 31.3 µM (inactive)
- GI50 (NCI-H23): 20.7 µM (inactive)
- GI50 (NCI-H460): 34.8 µM (inactive)
- GI50 (NCI-H522): 23 µM (inactive)
- GI50 (NCI/ADR-RES): 20.9 µM (inactive)
- GI50 (OVCAR-3): 21 µM (inactive)
- GI50 (OVCAR-4): 29.8 µM (inactive)
- GI50 (OVCAR-5): 28.4 µM (inactive)
- GI50 (OVCAR-8): 25.5 µM (inactive)
- GI50 (PC-3): 24.7 µM (inactive)
- GI50 (RPMI-8226): 20.9 µM (inactive)
- GI50 (RXF 393): 23.6 µM (inactive)
- GI50 (SF-268): 34.1 µM (inactive)
- GI50 (SF-295): 26.5 µM (inactive)
- GI50 (SF-539): 34.3 µM (inactive)
- GI50 (SK-MEL-28): 24.8 µM (inactive)
- GI50 (SK-MEL-2): 21.3 µM (inactive)
- GI50 (SK-OV-3): 30.3 µM (inactive)
- GI50 (SN12C): 22.1 µM (inactive)
- GI50 (SNB-19): 29.4 µM (inactive)
- GI50 (SNB-75): 24.3 µM (inactive)
- GI50 (SW-620): 25.5 µM (inactive)
- GI50 (T47D): 35.8 µM (inactive)
- GI50 (TK-10): 41 µM (inactive)
- GI50 (U-251): 21.4 µM (inactive)
- GI50 (UACC-257): 29.4 µM (inactive)
- GI50 (UACC-62): 18.2 µM (inactive)
